In patent US9217150B2, “NRPS-PKS gene cluster and its manipulation and utility” (SINTEF TTO AS, priority 2008, dated 2015):

Tested on: strain DSM 21069 (isolate MP28-13)
Assay: Antibiotic resistance characteristics of strain DSM 21069
Assay type: cell-based, Streptomyces

Molecule	Antibiotic resistance (antibiotic at 5 μg/ml)	Antibiotic resistance (antibiotic at 10 μg/ml)	Antibiotic resistance (antibiotic at 20 μg/ml)	Antibiotic resistance (antibiotic at 50 μg/ml)
Neomycin	sensitive	sensitive	sensitive	sensitive
CO[C@H]1/C=C/O[C@@]2(C)Oc3c(C)c(O)c4c(O)c(cc(O)c4c3C2=O)NC(=O)/C(C)=C\C=C\[C@H](C)[C@H](O)[C@@H](C)[C@@H](O)[C@@H](C)[C@H](OC(C)=O)[C@@H]1C [Rifamycin]	resistant	resistant	resistant	sensitive
C=C(NC(=O)C(=C)NC(=O)c1csc(C2=N[C@@H]3c4csc(n4)[C@H]4NC(=O)c5csc(n5)[C@H]([C@](C)(O)[C@@H](C)O)NC(=O)[C@H]5CSC(=N5)/C(=C/C)NC(=O)[C@H]([C@@H](C)O)NC(=O)c5csc(n5)[C@]3(CC2)NC(=O)[C@H](C)NC(=O)C(=C)NC(=O)[C@H](C)NC(=O)[C@H]([C@@H](C)CC)N[C@@H]2C=Cc3c([C@H](C)O)cc(nc3[C@H]2O)C(=O)O[C@@H]4C)n1)C(N)=O [Thiostrepton]	sensitive	sensitive	sensitive	sensitive
[H]/N=C(/N)N[C@H]1[C@H](O)[C@@H](O)[C@H](O[C@@H]2O[C@@H](C)[C@](O)(C=O)[C@H]2O[C@@H]2O[C@@H](CO)[C@H](O)[C@@H](O)[C@@H]2NC)[C@@H](N/C(N)=N\[H])[C@@H]1O [Streptomycin]	resistant	resistant	resistant	resistant
CN[C@@H]1[C@@H](O[C@H]2O[C@H](CO)[C@@H](N)[C@H](O)[C@H]2O)OC2C[C@@H](N)[C@@H](O[C@H]3[C@H](O)[C@@H](O)[C@H](N)C[C@@H]3N)OC2[C@@H]1O (some centres unmarked) [Apramycin]	sensitive	sensitive	sensitive	sensitive
